This note sets out measurements from ChEMBL document CHEMBL1201862, “PubChem BioAssay data set” (2004).

The target of assay [1] is T1, Delta-type opioid receptor (Homo sapiens, UniProt P41143). Kind of assay: delta opioid receptor blockers – image-based, SAR follow-up (AID 2357). Type of assay: functional.
Assay [2] has as its target T2, Kappa-type opioid receptor (Homo sapiens, UniProt P41145). In words: kappa opioid receptor activation potency – imaging, image-based, SAR follow-up (AID 2359). Type of assay: functional.
The target of assay [3] is T1, Delta-type opioid receptor. Kind of assay: DOR agonists, SAR follow-up, image-based (AID 2370). Type of assay: functional.
The target in assay [4] is T2, Kappa-type opioid receptor. In words: kappa opioid receptor blockers, image-based, SAR follow-up (AID 2348). It counts as functional.
The target in assay [5] is T2, Kappa-type opioid receptor. Kind of assay: SAR analysis of small molecule agonists of the kappa opioid receptor via a luminescent beta-arrestin assay. [Related pubchem assays (depositor defined):AID1777, AID1786, AID1966, AID2133, AID2136, AID2348, AID2352, AID2357, AID2359, AID2370, AID2420, AID2478, AID2491, AID2492, AID2493, AID2497, AID2498, AID2500, AID449737, AID488822, AID488842]. Type of assay: functional.

The target in assay [6] is T3, Mu-type opioid receptor (Homo sapiens, UniProt P35372). In words: mu opioid receptor activators, image-based, SAR follow-up (AID 2352). Type of assay: functional.
For assay [7], the target named is Melanin-concentrating hormone receptor 1 (Homo sapiens, UniProt Q99705). In words: Fluorescence-based counterscreen for antagonists of the G-protein coupled receptor 7 (GPR7): cell-based high throughput dose response assay to identify antagonists of the melanin-concentrating hormone receptor 1 (MCHR1). It counts as functional. (In general: A counterscreen serves to expose hits that act by an unwanted route or on another target.)

The target in assay [8] is T3, Mu-type opioid receptor. In words: mu opioid receptor blockers – image-based, SAR follow-up (AID 2420).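 Further: compounds added before stimulation of receptor with agonist DAMGO.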 Type of assay: functional.
The target of assay [9] is T4, Neuropeptides B/W receptor type 1 (Homo sapiens, UniProt P48145).
T4 sequence (P48145 whole entry): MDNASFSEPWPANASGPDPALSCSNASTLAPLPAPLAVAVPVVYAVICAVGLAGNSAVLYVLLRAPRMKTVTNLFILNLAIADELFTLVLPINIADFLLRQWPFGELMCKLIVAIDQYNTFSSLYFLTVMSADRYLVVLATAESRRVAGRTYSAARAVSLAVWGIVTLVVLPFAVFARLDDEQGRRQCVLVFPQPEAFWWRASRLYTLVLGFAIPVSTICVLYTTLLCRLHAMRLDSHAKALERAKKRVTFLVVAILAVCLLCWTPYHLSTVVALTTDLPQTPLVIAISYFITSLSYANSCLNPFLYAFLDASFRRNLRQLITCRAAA
Kind of assay: Fluorescence-based dose response cell-based high throughput screening assay to identify antagonists of the G-protein coupled receptor 7 (GPR7). [Related pubchem assays: 1952 (Screening assay (GPR7 antagonists).), 1880 (Summary AID.)]. Type of assay: functional.

For assay [10], the target named is T5, Runt-related transcription factor 1/Core-binding factor subunit beta (Homo sapiens, UniProt Q01196+Q13951). Kind of assay: disruptors of Runt domain/CBFb-SMMHC interaction – biochemical, FRET, Cerulean-Runt, Venus-CBFb-SMMHC, uHTS, […] (AID 1434). Type of assay: protein assay.
Assay [11] has as its target T5, Runt-related transcription factor 1/Core-binding factor subunit beta. In words: Runt domain/CBFb-SMMHC interaction disruptors – biochemical, TR-FRET (AID 1438). Type of assay: protein assay.
In assay [12] the target is T6, E3 ubiquitin-protein ligase XIAP (Homo sapiens, UniProt P98170). In words: SAR analysis of Antagonists of IAP-family anti-apoptotic proteins. [Related pubchem assays (depositor defined):AID1018, AID1449, AID1513, AID1514, AID1638].
The target in assay [13] is T6, E3 ubiquitin-protein ligase XIAP. Kind of assay: SAR analysis of Antagonists of XIAP-Bir3 domain of IAP-family anti-apoptotic proteins. [Related pubchem assays (depositor defined):AID1018, AID1449, AID1513, AID1514, AID1638].
The target in assay [14] is Tyrosine-protein phosphatase non-receptor type 12 (Homo sapiens, UniProt Q05209). In words: SAR Selectivity Analysis of small molecule inhibitors of PEST using pCAP in a fluorescence assay. [Related pubchem assays (depositor defined):AID1779, AID1784, AID2135]. It counts as functional.
In assay [15] the target is T7, Tyrosine-protein phosphatase non-receptor type 22 (Homo sapiens, UniProt Q9Y2R2).
T7 sequence (Q9Y2R2 whole entry): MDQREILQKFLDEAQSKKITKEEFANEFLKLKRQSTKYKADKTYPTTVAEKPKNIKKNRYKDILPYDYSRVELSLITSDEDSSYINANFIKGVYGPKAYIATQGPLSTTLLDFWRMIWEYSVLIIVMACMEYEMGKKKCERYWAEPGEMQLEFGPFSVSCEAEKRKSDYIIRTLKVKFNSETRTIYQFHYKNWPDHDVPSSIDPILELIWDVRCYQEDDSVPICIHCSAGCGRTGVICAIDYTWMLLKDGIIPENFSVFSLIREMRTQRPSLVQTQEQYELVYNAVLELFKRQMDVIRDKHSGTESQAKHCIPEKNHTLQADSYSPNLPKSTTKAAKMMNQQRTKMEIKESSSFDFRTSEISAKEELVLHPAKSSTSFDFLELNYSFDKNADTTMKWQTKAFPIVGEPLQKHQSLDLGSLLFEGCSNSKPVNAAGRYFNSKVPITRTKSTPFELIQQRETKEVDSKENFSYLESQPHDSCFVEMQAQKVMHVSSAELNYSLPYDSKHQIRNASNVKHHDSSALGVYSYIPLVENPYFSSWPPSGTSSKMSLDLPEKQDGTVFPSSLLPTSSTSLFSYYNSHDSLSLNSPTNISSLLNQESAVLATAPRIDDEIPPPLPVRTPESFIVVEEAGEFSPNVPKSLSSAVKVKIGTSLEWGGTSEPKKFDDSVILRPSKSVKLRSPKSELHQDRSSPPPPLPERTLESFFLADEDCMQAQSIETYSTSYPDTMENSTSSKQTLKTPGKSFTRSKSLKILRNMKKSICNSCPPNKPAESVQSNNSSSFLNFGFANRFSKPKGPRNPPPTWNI
In words: SAR LYP1 Fluorescent Assay using pCAP substrate for In Vitro dose response studies - Set 2. [Related pubchem assays (depositor defined):AID1779, AID1784, AID2135, AID449727]. Type of assay: functional.

Assay [16] addresses T7, Tyrosine-protein phosphatase non-receptor type 22. Kind of assay: PubChem AID 2135.
Assay [17] has the same target. Kind of assay: SAR LYP1 Fluorescent Assay using OMFP substrate for In Vitro dose response studies - Set 3. [Related pubchem assays (depositor defined):AID1779, AID1784, AID2140, AID2686]. Type of assay: functional.
Assay [18] shares this target. Kind of assay: PubChem AID 2140.
Assay [19] shares this target. In words: inhibition of lymphoid tyrosine phosphatase LYP – biochemical, pCAP fluorogenic substrate, fluorescence, set 3, SAR follow-up (AID 449727). It counts as functional.
The target is the same in assay [20]. Kind of assay: SAR LYP1 Fluorescent Assay using OMFP substrate for In Vitro dose response studies - Set 2. [Related pubchem assays (depositor defined):AID1779, AID1784, AID2140, AID449726, AID488869]. It counts as functional.
For assay [21], the target named is T8, Tyrosine-protein phosphatase non-receptor type 7 (Homo sapiens, UniProt P35236).
T8 sequence (P35236 whole entry): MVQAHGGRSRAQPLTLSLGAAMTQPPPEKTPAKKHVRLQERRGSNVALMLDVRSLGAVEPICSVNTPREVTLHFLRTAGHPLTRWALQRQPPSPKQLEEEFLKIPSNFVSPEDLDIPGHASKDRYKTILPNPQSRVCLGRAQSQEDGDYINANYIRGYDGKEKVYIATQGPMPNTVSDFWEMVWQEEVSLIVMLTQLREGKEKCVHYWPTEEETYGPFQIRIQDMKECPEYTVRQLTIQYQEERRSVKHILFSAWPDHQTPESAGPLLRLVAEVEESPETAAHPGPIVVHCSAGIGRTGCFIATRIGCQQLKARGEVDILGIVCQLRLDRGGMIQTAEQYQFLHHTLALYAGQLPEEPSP
Kind of assay: inhibition of hematopoietic tyrosine phosphatase HePTP – biochemical, set 2, SAR follow-up (AID 449736). It counts as functional.

Active and inactive are the calls of the source.

T2 sequence (P41145 whole entry): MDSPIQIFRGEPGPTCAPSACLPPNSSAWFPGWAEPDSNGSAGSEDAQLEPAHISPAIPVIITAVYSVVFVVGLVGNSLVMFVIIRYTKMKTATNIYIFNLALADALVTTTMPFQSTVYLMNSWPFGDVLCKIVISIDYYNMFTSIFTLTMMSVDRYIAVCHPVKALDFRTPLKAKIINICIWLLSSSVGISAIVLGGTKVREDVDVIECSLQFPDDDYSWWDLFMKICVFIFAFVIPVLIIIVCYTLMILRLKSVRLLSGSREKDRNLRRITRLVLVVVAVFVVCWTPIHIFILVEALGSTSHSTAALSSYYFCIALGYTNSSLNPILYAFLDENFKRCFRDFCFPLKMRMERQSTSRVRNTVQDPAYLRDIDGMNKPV
T5 sequence (Q01196 whole entry, the tested form may be a part): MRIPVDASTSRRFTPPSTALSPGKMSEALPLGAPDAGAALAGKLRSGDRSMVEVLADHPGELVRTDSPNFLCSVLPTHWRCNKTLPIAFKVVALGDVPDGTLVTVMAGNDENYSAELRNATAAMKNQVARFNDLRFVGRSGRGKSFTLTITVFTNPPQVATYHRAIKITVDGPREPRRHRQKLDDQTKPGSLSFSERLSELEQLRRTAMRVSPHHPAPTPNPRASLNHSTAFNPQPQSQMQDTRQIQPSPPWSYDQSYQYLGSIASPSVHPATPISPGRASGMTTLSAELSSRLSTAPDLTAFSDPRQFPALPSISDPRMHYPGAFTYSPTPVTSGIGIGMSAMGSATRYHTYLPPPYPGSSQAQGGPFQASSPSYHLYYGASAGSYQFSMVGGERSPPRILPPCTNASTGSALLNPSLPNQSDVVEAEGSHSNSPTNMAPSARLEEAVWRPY
T5 sequence (Q13951 whole entry, the tested form may be a part): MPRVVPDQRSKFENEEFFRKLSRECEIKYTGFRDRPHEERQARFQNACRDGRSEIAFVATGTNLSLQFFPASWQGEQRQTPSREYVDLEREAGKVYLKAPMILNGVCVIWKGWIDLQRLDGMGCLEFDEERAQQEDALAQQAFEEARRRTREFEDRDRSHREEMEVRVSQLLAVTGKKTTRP
T1 sequence (P41143 whole entry): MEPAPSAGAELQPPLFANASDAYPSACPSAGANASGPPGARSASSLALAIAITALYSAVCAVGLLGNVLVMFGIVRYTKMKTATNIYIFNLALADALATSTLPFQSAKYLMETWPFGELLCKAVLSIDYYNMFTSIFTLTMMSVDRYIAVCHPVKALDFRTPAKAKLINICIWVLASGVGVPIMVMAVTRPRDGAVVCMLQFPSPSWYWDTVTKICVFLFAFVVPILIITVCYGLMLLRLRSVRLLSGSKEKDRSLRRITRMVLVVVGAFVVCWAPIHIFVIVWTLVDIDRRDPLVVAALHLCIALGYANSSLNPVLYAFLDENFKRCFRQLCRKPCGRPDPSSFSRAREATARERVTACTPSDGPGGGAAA
T3 sequence (P35372 whole entry): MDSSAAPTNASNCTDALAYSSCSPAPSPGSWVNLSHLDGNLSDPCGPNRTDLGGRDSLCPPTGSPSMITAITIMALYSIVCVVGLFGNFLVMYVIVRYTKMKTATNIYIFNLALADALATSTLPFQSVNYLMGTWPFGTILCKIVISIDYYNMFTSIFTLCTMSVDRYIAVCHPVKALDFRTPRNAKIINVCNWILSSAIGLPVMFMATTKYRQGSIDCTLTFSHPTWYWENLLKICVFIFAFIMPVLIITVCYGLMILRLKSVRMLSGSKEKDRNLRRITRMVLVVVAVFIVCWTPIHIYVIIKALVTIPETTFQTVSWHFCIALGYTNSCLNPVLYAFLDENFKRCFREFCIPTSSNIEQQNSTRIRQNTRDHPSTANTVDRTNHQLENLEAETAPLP
T6 sequence (P98170 whole entry, the tested form may be a part): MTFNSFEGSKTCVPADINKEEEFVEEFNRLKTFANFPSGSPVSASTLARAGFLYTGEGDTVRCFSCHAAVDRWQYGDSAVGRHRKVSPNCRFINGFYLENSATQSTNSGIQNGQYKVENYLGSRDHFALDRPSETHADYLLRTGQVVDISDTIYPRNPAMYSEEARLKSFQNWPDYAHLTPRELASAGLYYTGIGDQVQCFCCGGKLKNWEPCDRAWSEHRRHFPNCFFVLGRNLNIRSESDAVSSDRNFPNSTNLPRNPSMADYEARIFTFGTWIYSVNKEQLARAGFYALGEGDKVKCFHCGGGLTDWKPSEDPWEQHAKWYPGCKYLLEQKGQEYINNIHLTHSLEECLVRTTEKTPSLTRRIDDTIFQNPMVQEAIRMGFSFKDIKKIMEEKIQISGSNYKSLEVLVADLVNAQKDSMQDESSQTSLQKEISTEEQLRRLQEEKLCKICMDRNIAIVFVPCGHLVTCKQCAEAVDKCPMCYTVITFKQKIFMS
Chain of Tyrosine-protein phosphatase non-receptor type 12 (Q05209 whole entry): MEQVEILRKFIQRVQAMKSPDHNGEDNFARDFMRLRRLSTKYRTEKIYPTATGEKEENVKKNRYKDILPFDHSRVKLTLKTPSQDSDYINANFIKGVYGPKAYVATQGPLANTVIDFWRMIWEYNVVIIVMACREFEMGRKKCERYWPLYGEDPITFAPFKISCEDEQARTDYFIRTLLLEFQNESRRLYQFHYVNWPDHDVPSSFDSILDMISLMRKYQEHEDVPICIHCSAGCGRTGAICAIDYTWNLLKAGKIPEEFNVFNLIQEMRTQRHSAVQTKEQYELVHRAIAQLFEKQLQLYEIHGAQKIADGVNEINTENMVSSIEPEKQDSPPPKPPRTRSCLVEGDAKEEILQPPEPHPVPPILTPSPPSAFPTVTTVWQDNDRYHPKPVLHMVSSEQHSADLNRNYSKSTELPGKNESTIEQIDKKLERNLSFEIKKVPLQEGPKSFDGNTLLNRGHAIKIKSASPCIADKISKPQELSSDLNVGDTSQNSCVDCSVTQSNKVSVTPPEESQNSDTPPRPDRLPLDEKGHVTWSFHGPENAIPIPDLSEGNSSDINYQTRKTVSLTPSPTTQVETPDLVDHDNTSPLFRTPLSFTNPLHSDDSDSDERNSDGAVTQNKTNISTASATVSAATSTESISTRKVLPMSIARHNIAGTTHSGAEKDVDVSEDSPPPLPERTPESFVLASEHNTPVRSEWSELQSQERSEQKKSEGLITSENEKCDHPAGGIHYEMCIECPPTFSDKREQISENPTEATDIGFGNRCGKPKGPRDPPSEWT
Chain of Melanin-concentrating hormone receptor 1 (Q99705 whole entry): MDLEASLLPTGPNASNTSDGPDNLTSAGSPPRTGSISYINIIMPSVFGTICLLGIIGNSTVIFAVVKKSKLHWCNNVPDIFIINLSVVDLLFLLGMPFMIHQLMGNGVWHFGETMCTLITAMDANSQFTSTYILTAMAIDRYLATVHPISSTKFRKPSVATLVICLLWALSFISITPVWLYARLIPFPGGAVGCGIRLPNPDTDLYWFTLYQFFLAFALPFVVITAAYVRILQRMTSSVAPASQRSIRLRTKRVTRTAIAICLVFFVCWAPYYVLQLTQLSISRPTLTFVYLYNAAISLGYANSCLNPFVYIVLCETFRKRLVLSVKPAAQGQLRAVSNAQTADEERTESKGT

`O=C(c1cnccn1)N(Cc1ccco1)C1(C(=O)NC2CCCC2)CCCCC1`: the IC50 – broadly, the midpoint of a concentration-inhibition curve – in assay [1] is > 32 µM (inactive); in [4] it was > 32 µM (inactive); in assay [7] it was > 43.8 µM (not active); on Mu-type opioid receptor [8], > 32 µM (inactive); in [9] it was > 43.8 µM (not active). The EC50 (usually the concentration that produces a half-maximal response) was > 32 µM (inactive) in assay [2], > 32 µM (inactive) in assay [3], > 10 µM (inactive) in [5] and > 32 µM (inactive) on Mu-type opioid receptor [6].
In the case of `CC(C)C(=O)N(c1cc2sc(=O)oc2c2ccccc12)S(=O)(=O)c1cccs1`, the IC50 in assay [10] and in assay [11] was > 100 µM (inactive) throughout.
With `CN[C@@H](C)C(=O)N[C@H](C(=O)N1CCC[C@H]1C(=O)NNc1ccccc1)C(C)C`, the values for the IC50 in assay [12] and in assay [13] were 1.3 µM (active) and 2.9 µM (active), respectively.
Take `N#C/C(=C/c1ccc(OCc2ccc(C(=O)O)cc2)cc1)c1cccc(F)c1`: the IC50 is 21 µM (active) in assay [14]; 86.7 µM (active) in assay [15]; > 100 µM (inactive) in assay [16]; 82.9 µM (active) in [17]; > 100 µM (inactive) in assay [18]; > 100 µM (inactive) in assay [19]. The IC50 in assay [20] was 65.5 µM (active); in assay [21], 3.65 µM (active).
